# In article PMC12544700, “Identification of a Small Secretoneurin Derivative That Inhibits CaMKIIδ Activity” (Journal of Cellular and Molecular Medicine, 2025):
# Peptide text beside a SMILES is read from it. * marks the point of attachment. Biotin = O=C1N[C@H]2[C@H](CS[C@H]2CCCCC(=O)*)N1; Ahx = NCCCCCC(=O)O
# How the values were obtained:
# adult rat cardiomyocytes = assay: Caffeine-elicited Ca2+ transients (Ca2+ extrusion); type: cell-based; conditions: 10 mM caffeine; whole‐cell photometry; Figure S3, n = 10–18, 4–6 rats
# Method: Male Wistar rats (Janvier, France) weighing ~300 g were sedated in an anaesthesia chamber by inhalation of 5% isoflurane and 95% O2. The heart was excised under deep surgical anaesthesia, cannulated, and then retrogradely perfused through the aorta on a modified Langendorff setup with cell isolation solution containing (in mM, pH adjusted to 7.4, 37°C): NaCl 130, Hepes 25, D‐glucose 22, KCl 5.4, MgCl2 0.5, NaH2PO4 0.4, and a flow rate of 4 mL/min. After the heart was cleaned of blood, collagenase type II (2 mg/mL, Worthington Biochemical Corp, Lakewood, NJ, USA) was added to the perfusate, and the hearts digested for ~10 min. Following digestion, hearts were cut down, and the left ventricle dissected into pieces, which were transferred into 10 mL cell isolation solution with 250 μL BSA (40 mg/mL) and ~0.2 mg Deoxyribonuclease I (Worthington Biochemical Corporation, Lakewood, NJ, USA). […]
# To estimate SR Ca^2+ content, Ca^2+ release was triggered by rapid exposure to 10 mM caffeine (Sigma) and recorded by whole‐cell photometry (Photon Technology International, Monmouth Junction, NJ, USA) with a 40× oil objective. Cells were first stimulated at 1 Hz in Hepes‐Tyrode (HT, see the paragraph above) solution containing CaCl2 until at least three stable Ca^2+ transients were recorded. […]
# human His‐CaMKIIδ‐T287D = molecular target: T1, human His‐CaMKIIδ‐T287D (Homo sapiens, UniProt Q13557, T287D); assay: CaMKII pull-down with biotinylated peptides on streptavidin beads; type: binding; conditions: biotin‐SN‐db‐short vs biotin‐SN; immunoblot; Figure S2A, n = 8
# T1 construct: Recombinant human His‐CaMKIIδ‐T287D and rat His‐CaMKIIδ‐T287D full‐length proteins; His; purchased Genscript Corp (custom made)
# Method: In the CaMKII pull‐down assay, the biotinylated peptides (20 μL) were coupled to 50 μL of streptavidin magnetic beads (88816, Thermo Fisher) in PBS for 2 h at 4°C with rotation. The bead‐bound peptides were thereafter incubated with 1 μg of human His‐CaMKIIδ‐T287D in 300 μL of PBS or PBS with 1% BSA for 2 h at 4°C with rotation. The protein complexes attached to the beads were then washed three times in 300 μL of IP buffer (20 mM Hepes, pH 7.5, 150 mM NaCl, 1 mM EDTA, 1% Triton X‐100, supplemented with complete protease inhibitor cocktail and phosphatase inhibitor cocktail) or PBS. Samples were boiled in SDS loading buffer at 95°C for 5 min before western blot analysis.
# Lysates and immunoprecipitates were separated on 12% or 4%–15% Criterion TGX precast gels (5671044 and 5671084, Biorad, Hercules, CA, USA), blotted onto PVDF membranes (1704157 by Biorad or 03010040001 by Sigma Merck) and reversibly stained with Revert 700 Total Protein Stain (Li‐COR Biosciences, Lincoln, NE, USA). […] Blots were developed using ECL (RPN2236, GE Healthcare, Chicago, IL, USA) after four washing steps of 10 min in TBS‐t and the chemiluminescence signals were detected by Azure Biosystems 600 (Dublin, CA, USA). […] ImageJ [13] was used to quantify the blots. […]
# T1 sequence (Q13557 whole entry T287D): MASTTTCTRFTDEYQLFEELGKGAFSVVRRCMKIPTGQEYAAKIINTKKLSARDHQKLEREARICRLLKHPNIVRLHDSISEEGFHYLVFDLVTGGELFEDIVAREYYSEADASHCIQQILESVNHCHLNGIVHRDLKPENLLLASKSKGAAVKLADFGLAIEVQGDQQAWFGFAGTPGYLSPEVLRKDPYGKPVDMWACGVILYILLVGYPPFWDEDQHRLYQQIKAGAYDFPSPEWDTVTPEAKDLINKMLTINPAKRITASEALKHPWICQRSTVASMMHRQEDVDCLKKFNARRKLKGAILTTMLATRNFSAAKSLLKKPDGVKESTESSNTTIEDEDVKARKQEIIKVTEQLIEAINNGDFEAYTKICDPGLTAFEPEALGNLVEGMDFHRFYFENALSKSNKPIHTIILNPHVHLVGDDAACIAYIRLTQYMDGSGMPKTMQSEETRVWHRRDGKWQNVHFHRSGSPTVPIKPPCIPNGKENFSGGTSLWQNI
smiles,measurement,setting,value
CC(C)C[C@H](NC(=O)[C@H](CCC(=O)O)NC(=O)[C@H](CCC(N)=O)NC(=O)[C@H](Cc1ccccc1)NC(=O)[C@H](Cc1ccccc1)NC(=O)[C@H](CO)NC(=O)[C@H](CCC(=O)O)NC(=O)[C@H](Cc1ccccc1)NC(=O)[C@@H](NC(=O)[C@H](C)NC(=O)[C@H](CC(C)C)NC(=O)[C@H](CO)NC(=O)[C@H](CCC(N)=O)NC(=O)[C@@H]1CCCN1C(=O)[C@@H](NC(=O)[C@H](Cc1ccc(O)cc1)NC(=O)[C@H](CCC(N)=O)NC(=O)[C@H](CCC(=O)O)NC(=O)CCCCCNC(=O)CCCC[C@@H]1SC[C@@H]2NC(=O)N[C@@H]21)[C@@H](C)O)[C@@H](C)O)C(=O)NCC(=O)N[C@@H](CCCCN)C(=O)O [SN‐db‐short] ({Biotin-Ahx}-EQYTPQSLATFESFFQELGK-OH; N-terminus and C-terminus assumed),Rate of Ca2+ extrusion (Na+‐Ca2+ exchanger and plasma membrane Ca2+ ATPase activity),adult rat cardiomyocytes,no change
same,Binding to recombinant human CaMKIIδ‐T287D vs. native SN (pull down),human His‐CaMKIIδ‐T287D,increased binding
